Measured values from PubChem BioAssay (NCI).
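Cultured in 96-well plates, cells were exposed to test compound for 48 hours across five concentrations. GI50: concentration for 50% inhibition of growth. TGI: total growth inhibition.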

Experiments:
Assay in all cases: inhibition of tumour cell growth, NCI panel, 48 h
786-0 renal = system: 786-0 renal
A498 renal = system: A498 renal
A549 NSCLC = system: A549 NSCLC
ACHN renal = system: ACHN renal
BT-549 breast = system: BT-549 breast
CAKI-1 renal = system: CAKI-1 renal
CCRF-CEM leukemia = system: CCRF-CEM leukemia
COLO 205 colon = system: COLO 205 colon
DU-145 prostate = system: DU-145 prostate
EKVX NSCLC = system: EKVX NSCLC
HCC-2998 colon = system: HCC-2998 colon
HCT-116 colon = system: HCT-116 colon
HCT-15 colon = system: HCT-15 colon
HL-60(TB) leukemia = system: HL-60(TB) leukemia
HOP-62 NSCLC = system: HOP-62 NSCLC
HOP-92 NSCLC = system: HOP-92 NSCLC
HS 578T breast = system: HS 578T breast
HT29 colon = system: HT29 colon
IGROV1 ovarian = system: IGROV1 ovarian
K-562 leukemia = system: K-562 leukemia
KM12 colon = system: KM12 colon
LOX IMVI melanoma = system: LOX IMVI melanoma
M14 melanoma = system: M14 melanoma
MALME-3M melanoma = system: MALME-3M melanoma
MCF7 breast = system: MCF7 breast
MDA-MB-231 breast = system: MDA-MB-231 breast
MDA-MB-435 = system: MDA-MB-435
MDA-MB-468 breast = system: MDA-MB-468 breast
MOLT-4 leukemia = system: MOLT-4 leukemia
NCI-H226 lung = system: NCI-H226 lung
NCI-H23 lung = system: NCI-H23 lung
NCI-H460 lung = system: NCI-H460 lung
NCI-H522 lung = system: NCI-H522 lung
OVCAR-3 ovarian = system: OVCAR-3 ovarian
OVCAR-4 ovarian = system: OVCAR-4 ovarian
OVCAR-5 ovarian = system: OVCAR-5 ovarian
OVCAR-8 ovarian = system: OVCAR-8 ovarian
PC-3 prostate = system: PC-3 prostate
RPMI-8226 leukemia = system: RPMI-8226 leukemia
RXF 393 renal = system: RXF 393 renal
SF-268 CNS = system: SF-268 CNS
SF-295 CNS = system: SF-295 CNS
SF-539 CNS = system: SF-539 CNS
SK-MEL-2 melanoma = system: SK-MEL-2 melanoma
SK-MEL-28 melanoma = system: SK-MEL-28 melanoma
SK-MEL-5 melanoma = system: SK-MEL-5 melanoma
SK-OV-3 ovarian = system: SK-OV-3 ovarian
SN12C renal = system: SN12C renal
SNB-19 CNS = system: SNB-19 CNS
SNB-75 CNS = system: SNB-75 CNS
SR leukemia = system: SR leukemia
SW-620 colon = system: SW-620 colon
T-47D breast = system: T-47D breast
TK-10 renal = system: TK-10 renal
U251 CNS = system: U251 CNS
UACC-257 melanoma = system: UACC-257 melanoma
UACC-62 melanoma = system: UACC-62 melanoma
UO-31 renal = system: UO-31 renal

With O=C1NC(=NC23CC4CC(CC(C4)C2)C3)N/C1=C\c1ccc2ncccc2c1 the GI50 (786-0 renal) was 8.95 µM, the TGI (786-0 renal) was 45 µM and the GI50 (A498 renal) was 1.12 µM. For the same compound, the TGI (A498 renal) was greater than 100 µM, the GI50 (A549 NSCLC) was 4.09 µM and the TGI (A549 NSCLC) was 18.6 µM. For the same compound, the GI50 (ACHN renal) was 4.09 µM, the TGI (ACHN renal) was 26.2 µM and the GI50 (BT-549 breast) was 4.39 µM. For the same compound, the TGI (BT-549 breast) was 41.9 µM, the GI50 (CAKI-1 renal) was 4.15 µM and the TGI (CAKI-1 renal) was 34.7 µM. For the same compound, the GI50 (CCRF-CEM leukemia) was 3.22 µM, the TGI (CCRF-CEM leukemia) was 19.1 µM and the GI50 (COLO 205 colon) was 5.58 µM. For the same compound, the TGI (COLO 205 colon) was greater than 100 µM, the GI50 (DU-145 prostate) was 6.03 µM and the TGI (DU-145 prostate) was greater than 100 µM. For the same compound, the GI50 (EKVX NSCLC) was 8.33 µM, the TGI (EKVX NSCLC) was greater than 100 µM and the GI50 (HCC-2998 colon) was 7.5 µM. For the same compound, the TGI (HCC-2998 colon) was greater than 100 µM, the GI50 (HCT-116 colon) was 3.41 µM and the TGI (HCT-116 colon) was 16 µM. It also gave a GI50 (HCT-15 colon) of 2.8 µM, a TGI (HCT-15 colon) of 22.7 µM and a GI50 (HL-60(TB) leukemia) of 3.09 µM. It also gave a TGI (HL-60(TB) leukemia) of 27.3 µM, a GI50 (HOP-62 NSCLC) of 6.56 µM and a TGI (HOP-62 NSCLC) greater than 100 µM. It also gave a GI50 (HOP-92 NSCLC) of 25.9 µM, a TGI (HOP-92 NSCLC) greater than 100 µM and a GI50 (HS 578T breast) of 2.9 µM. It also gave a TGI (HS 578T breast) of 34.3 µM, a GI50 (HT29 colon) of 22.8 µM and a TGI (HT29 colon) greater than 100 µM. The GI50 (IGROV1 ovarian) was 6.43 µM, the TGI (IGROV1 ovarian) was greater than 100 µM and the GI50 (K-562 leukemia) was 3.08 µM. For the same compound, the TGI (K-562 leukemia) was greater than 100 µM, the GI50 (KM12 colon) was 11 µM and the TGI (KM12 colon) was greater than 100 µM. The GI50 (LOX IMVI melanoma) was 7.86 µM, the TGI (LOX IMVI melanoma) was 29.5 µM and the GI50 (M14 melanoma) was 6.07 µM. It also gave a TGI (M14 melanoma) greater than 100 µM, a GI50 (MALME-3M melanoma) of 28.6 µM and a TGI (MALME-3M melanoma) of 94.9 µM. The GI50 (MCF7 breast) was 6.59 µM, the TGI (MCF7 breast) was greater than 100 µM and the GI50 (MDA-MB-231 breast) was 16.9 µM. For the same compound, the TGI (MDA-MB-231 breast) was 64.7 µM, the GI50 (MDA-MB-435) was 5.53 µM and the TGI (MDA-MB-435) was greater than 100 µM. It also gave a GI50 (MDA-MB-468 breast) of 2.11 µM, a TGI (MDA-MB-468 breast) greater than 100 µM and a GI50 (MOLT-4 leukemia) of 3.95 µM. The TGI (MOLT-4 leukemia) was 26 µM, the GI50 (NCI-H226 lung) was 4.91 µM and the TGI (NCI-H226 lung) was 42.1 µM. The GI50 (NCI-H23 lung) was 4.98 µM, the TGI (NCI-H23 lung) was greater than 100 µM and the GI50 (NCI-H460 lung) was 3.38 µM. The TGI (NCI-H460 lung) was 15.2 µM, the GI50 (NCI-H522 lung) was 1.97 µM and the TGI (NCI-H522 lung) was 30.8 µM. The GI50 (OVCAR-3 ovarian) was 2.86 µM, the TGI (OVCAR-3 ovarian) was 29.7 µM and the GI50 (OVCAR-4 ovarian) was 16.3 µM. For the same compound, the TGI (OVCAR-4 ovarian) was 80.8 µM, the GI50 (OVCAR-5 ovarian) was 64.4 µM and the TGI (OVCAR-5 ovarian) was greater than 100 µM. It also gave a GI50 (OVCAR-8 ovarian) of 8 µM, a TGI (OVCAR-8 ovarian) of 33.2 µM and a GI50 (PC-3 prostate) of 15 µM. It also gave a TGI (PC-3 prostate) of 64.2 µM, a GI50 (RPMI-8226 leukemia) of 6.82 µM and a TGI (RPMI-8226 leukemia) of 51.2 µM. The GI50 (RXF 393 renal) was 3.45 µM, the TGI (RXF 393 renal) was 28.1 µM and the GI50 (SF-268 CNS) was 8.17 µM. It also gave a TGI (SF-268 CNS) greater than 100 µM, a GI50 (SF-295 CNS) of 7.56 µM and a TGI (SF-295 CNS) of 64.9 µM. It also gave a GI50 (SF-539 CNS) of 1.18 µM, a TGI (SF-539 CNS) greater than 100 µM and a GI50 (SK-MEL-2 melanoma) of 2.35 µM. For the same compound, the TGI (SK-MEL-2 melanoma) was 10 µM, the GI50 (SK-MEL-28 melanoma) was 12.5 µM and the TGI (SK-MEL-28 melanoma) was greater than 100 µM. The GI50 (SK-MEL-5 melanoma) was 12.4 µM, the TGI (SK-MEL-5 melanoma) was greater than 100 µM and the GI50 (SK-OV-3 ovarian) was 3.59 µM. It also gave a TGI (SK-OV-3 ovarian) of 35.2 µM, a GI50 (SN12C renal) of 5.17 µM and a TGI (SN12C renal) greater than 100 µM. It also gave a GI50 (SNB-19 CNS) of 11.7 µM, a TGI (SNB-19 CNS) greater than 100 µM and a GI50 (SNB-75 CNS) of 0.218 µM. For the same compound, the TGI (SNB-75 CNS) was 26.6 µM, the GI50 (SR leukemia) was 2.33 µM and the TGI (SR leukemia) was 12.3 µM. It also gave a GI50 (SW-620 colon) of 3.95 µM, a TGI (SW-620 colon) greater than 100 µM and a GI50 (T-47D breast) of 19.4 µM. It also gave a TGI (T-47D breast) greater than 100 µM, a GI50 (TK-10 renal) of 6.87 µM and a TGI (TK-10 renal) of 60.7 µM. For the same compound, the GI50 (U251 CNS) was 10.2 µM, the TGI (U251 CNS) was 26.8 µM and the GI50 (UACC-257 melanoma) was 66.1 µM. It also gave a TGI (UACC-257 melanoma) greater than 100 µM, a GI50 (UACC-62 melanoma) of 40.2 µM and a TGI (UACC-62 melanoma) greater than 100 µM. The GI50 (UO-31 renal) was 5.03 µM and the TGI (UO-31 renal) was greater than 100 µM.
